Data on 17 compounds can be found in patent publication US20240059673A1, “SUBSTITUTED INDOLE COMPOUNDS” (Gilead Sciences, Inc., priority 2020, published 2024).

Where only a bound is given, the exact number is not on record here.

Broadly, the EC50 is the concentration needed to bring the measured effect to its halfway point.

One assay deals with T1, TLR9 (Homo sapiens, UniProt Q9NR96).
T1 construct: lymphocytes, monocytes and dendritic cells that express TLR7, TLR8 and TLR9; endogenous in cells; host or cells: cryopreserved human PBMCs from healthy donors
T1 sequence (Q9NR96 26-1032): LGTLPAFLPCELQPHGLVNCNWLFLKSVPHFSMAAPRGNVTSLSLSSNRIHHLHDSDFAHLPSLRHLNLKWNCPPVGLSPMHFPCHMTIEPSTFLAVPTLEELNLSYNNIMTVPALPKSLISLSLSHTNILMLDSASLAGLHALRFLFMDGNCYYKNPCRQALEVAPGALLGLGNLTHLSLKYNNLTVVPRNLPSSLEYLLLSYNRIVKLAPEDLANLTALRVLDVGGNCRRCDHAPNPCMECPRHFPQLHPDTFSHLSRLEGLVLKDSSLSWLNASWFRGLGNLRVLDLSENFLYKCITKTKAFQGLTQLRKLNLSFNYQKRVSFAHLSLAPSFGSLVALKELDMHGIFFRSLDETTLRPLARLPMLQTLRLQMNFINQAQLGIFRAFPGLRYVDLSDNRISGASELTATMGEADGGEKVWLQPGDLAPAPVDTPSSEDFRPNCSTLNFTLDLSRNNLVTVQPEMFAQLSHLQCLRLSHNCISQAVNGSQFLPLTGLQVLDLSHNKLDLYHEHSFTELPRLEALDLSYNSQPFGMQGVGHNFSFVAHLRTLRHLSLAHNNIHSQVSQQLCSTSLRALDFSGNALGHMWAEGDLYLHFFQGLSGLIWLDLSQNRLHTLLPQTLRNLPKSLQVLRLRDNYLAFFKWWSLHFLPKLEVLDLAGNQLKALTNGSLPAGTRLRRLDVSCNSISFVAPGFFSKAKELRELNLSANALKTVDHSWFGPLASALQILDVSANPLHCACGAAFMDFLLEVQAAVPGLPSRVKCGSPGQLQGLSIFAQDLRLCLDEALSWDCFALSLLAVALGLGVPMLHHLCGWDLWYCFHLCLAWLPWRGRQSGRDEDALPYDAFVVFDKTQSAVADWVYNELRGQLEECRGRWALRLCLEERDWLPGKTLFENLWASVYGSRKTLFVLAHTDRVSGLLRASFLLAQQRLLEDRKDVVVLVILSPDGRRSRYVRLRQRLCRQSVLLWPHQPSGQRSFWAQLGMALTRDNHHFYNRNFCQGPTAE
In words: Human PBMC cell-based assay, TLR9 agonist stimulation. The note with it: human PBMCs; TLR9 agonist ODN-2216 3 μM; 6 hours; cytokines (IL-6 and IFNα) in supernatant; Table 2; read-out: TLR-9 EC50. The source says:
(§1) Human Peripheral Blood Mononuclear Cell (PBMC) Cell-Based Assay
(§2) Human peripheral blood mononuclear cells (PBMCs) consist of lymphocytes, monocytes and dendritic cells that express TLR7, TLR8 and TLR9. These cells respond to TLR7, TLR8 and TLR9 ligand stimulation and produce cytokines and chemokines in vitro and in vivo. Human PBMCs are therefore suitable to be used in a cell-based assay to assess the in vitro potency of a TLR 7, 8, and/or 9 antagonist. The result is expected to be more translatable to the pharmacodynamics response in vivo than cell line-based assays.
(§3) Cryopreserved human PBMCs from healthy donors were thawed and resuspended in RPMI-1640 media with L-glutamine (Corning) supplemented with 10% Fetal Bovine Serum (Hyclone) and 1× Penicillin-Streptomycin (Corning). After counting, the cell density was adjusted to 2 million cells/ml and incubated for 1 hour at 37° C., 5% CO2 for recovery. Following the recovery, the cells were plated by adding 50p per well (100,000 cells) to 384-well cell culture plates (Greiner) containing 250 nl of test antagonists in 100% DMSO per well, in a 10 points dose response in quadruplicates. PBMCs were incubated in the presence of test antagonists for one hour at 37° C., 5% CO2 before being stimulated with a TLR7 or TLR9 agonist. GS-986 (Gilead Sciences) was used as the TLR7 agonist at a final concentration of 400 nM. ODN-2216 (InvivoGen) was used as the TLR9 agonist at a final concentration of 3μM. PBMCs were incubated in the presence of the test antagonist and the TLR7 (or TLR9) agonist for an additional 6 hours at 37° C., 5% CO2. At the end of the incubation, the cell culture plates were centrifuged at 500 g for 5 min, and the cell culture supernatant was collected. The level of cytokines (IL-6 and IFNα) in the supernatant was measured by electrochemiluminescence immunoassays (Mesoscale Discovery) following manufacturer's recommended protocols. The level of cytokine measured was plotted against the test antagonist concentration and fitted to a sigmoidal function to determine the EC50, which are shown below in Table 2.

The next assay has as its target T2, TLR7 (Homo sapiens, UniProt Q9NYK1).
T2 construct: lymphocytes, monocytes and dendritic cells that express TLR7, TLR8 and TLR9; endogenous in cells; host or cells: cryopreserved human PBMCs from healthy donors
T2 sequence (Q9NYK1 27-1049): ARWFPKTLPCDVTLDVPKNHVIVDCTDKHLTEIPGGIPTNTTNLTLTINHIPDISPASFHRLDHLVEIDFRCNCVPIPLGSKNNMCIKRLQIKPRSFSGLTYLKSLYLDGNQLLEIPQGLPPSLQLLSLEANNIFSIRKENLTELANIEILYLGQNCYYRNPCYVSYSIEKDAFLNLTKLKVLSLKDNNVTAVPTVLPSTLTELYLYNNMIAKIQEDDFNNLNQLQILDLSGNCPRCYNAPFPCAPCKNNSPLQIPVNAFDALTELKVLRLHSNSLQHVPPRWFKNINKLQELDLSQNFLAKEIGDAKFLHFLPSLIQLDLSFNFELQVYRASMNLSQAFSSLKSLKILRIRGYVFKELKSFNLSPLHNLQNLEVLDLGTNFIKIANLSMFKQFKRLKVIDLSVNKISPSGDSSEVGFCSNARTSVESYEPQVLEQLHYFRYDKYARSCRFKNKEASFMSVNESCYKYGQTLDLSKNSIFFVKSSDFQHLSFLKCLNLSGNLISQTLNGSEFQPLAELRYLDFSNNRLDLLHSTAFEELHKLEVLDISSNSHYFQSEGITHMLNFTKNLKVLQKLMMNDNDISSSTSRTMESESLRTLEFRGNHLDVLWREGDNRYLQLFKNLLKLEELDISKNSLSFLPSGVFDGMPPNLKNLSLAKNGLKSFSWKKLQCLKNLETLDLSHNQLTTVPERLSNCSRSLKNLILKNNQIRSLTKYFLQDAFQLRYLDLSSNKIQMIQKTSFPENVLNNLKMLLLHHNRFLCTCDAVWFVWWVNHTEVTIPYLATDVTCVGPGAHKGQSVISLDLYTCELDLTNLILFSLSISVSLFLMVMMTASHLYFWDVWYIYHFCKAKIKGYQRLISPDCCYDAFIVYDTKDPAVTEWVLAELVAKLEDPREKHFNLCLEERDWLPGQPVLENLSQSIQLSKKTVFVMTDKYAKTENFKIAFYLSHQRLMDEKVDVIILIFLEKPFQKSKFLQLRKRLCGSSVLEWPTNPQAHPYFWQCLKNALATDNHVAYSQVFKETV
Kind of assay: Human PBMC cell-based assay, TLR7 agonist stimulation. As to conditions: human PBMCs; TLR7 agonist GS-986 400 nM; 6 hours; cytokines (IL-6 and IFNα) in supernatant; Table 2; read-out: TLR-7 EC50.
Excerpt: as §1, §2, §3

As for `Cc1cc(-c2ccc3c(C)c(-c4cnc5c(c4)CNCC5)[nH]c3c2)cc(C)n1` [Example 16, 3-[6-(2,6-dimethyl-4-pyridyl)-3-methyl-1H-indol-2-yl]-5,6,7,8-tetrahydro-1,6-naphthyridine], the EC50 amounted to 27.9 nM at TLR9 and 67.9 nM at TLR7.

In the case of `Cc1cc(-c2ccc3c(C)c(C4CCN(C(=O)CC5CCNCC5)CC4)[nH]c3c2)cc(C)n1` [Example 26], the EC50 at TLR9 was 1300 nM; on TLR7, more than 1000 nM.

Take `CCN1CCC(c2[nH]c3cc(-c4cc(C)nc(C)c4)ccc3c2C)CC1` [Example 13, 6-(2,6-dimethylpyridin-4-yl)-2-(1-ethylpiperidin-4-yl)-3-methyl-1H-indole]: the EC50 is 174 nM on TLR9 and more than 1000 nM at TLR7.

As for `Cc1cc(-c2ccc3c(C)c(-c4ccc(N5CCN(CCO)CC5)nc4)[nH]c3c2)cc(C)n1` [Example 30, 2-(4-(5-(6-(2,6-dimethylpyridin-4-yl)-3-methyl-1H-indol-2-yl)pyridin-2-yl)piperazin-1-yl)ethan-1-ol], the figures for the EC50 at TLR9 and on TLR7 were 37.8 nM and 10.2 nM, respectively.

On to `COc1ccc(-c2ccc3c(C)c(-c4ccc(N5CCNCC5)nc4)[nH]c3c2)cc1OC` [Example 10], for which the EC50 on TLR9 turned out to be 518 nM; at TLR7 it was 58.8 nM.

For the compound `Cc1cc(-c2cnc3c(C)c(-c4ccc(N5CCNCC5)cc4)[nH]c3c2)cc(C)n1` [Example 28, 6-(2,6-dimethylpyridin-4-yl)-3-methyl-2-(4-(piperazin-1-yl)phenyl)-1H-pyrrolo[3,2-b]pyridine], the EC50 at TLR9 was determined as 134 nM; at TLR7, 28.3 nM.

As for `Cc1cc(-c2ccc3c(C)c(-c4cccc(C(=O)N[C@@H]5CCNC5)c4)[nH]c3c2)cc(C)n1` [Example 17, (R)-3-(6-(2,6-dimethylpyridin-4-yl)-3-methyl-1H-indol-2-yl)-N-(pyrrolidin-3-yl)benzamide], the concentration for a half-maximal effect (EC50) at TLR9 came to 422 nM; at TLR7, 193 nM.

Regarding `Cc1cc(-c2cnc3c(C)c(-c4ccc(N5CCNCC5)nc4)[nH]c3c2)cc(C)n1` [Example 29], the EC50 at TLR9 came to 77.4 nM; on TLR7, 14.7 nM.

Regarding `Cc1cc(-c2ccc3c(C)c(C4CCN(C(=O)CN(C)C)CC4)[nH]c3c2)cc(C)n1` [Example 24, 2-(dimethylamino)-1-(4-(6-(2,6-dimethylpyridin-4-yl)-3-methyl-1H-indol-2-yl)piperidin-1-yl)ethan-1-one], the EC50 on TLR9 is 131 nM; at TLR7 it was more than 1000 nM.

Take `Cc1c(-c2ccc(N3CCNCC3)nc2)[nH]c2cc(-c3ccnc4ccccc34)ccc12` [Example 8]: the values for the 50% effective concentration (EC50) on TLR9 and at TLR7 were 367 nM and 144 nM, respectively.

For `Cc1cc(-c2ccc3c(C)c(C4CCN(C(=O)c5cccnc5)CC4)[nH]c3c2)cc(C)n1` [Example 25], the concentration for a half-maximal effect (EC50) is 2830 nM at TLR9 and more than 1000 nM on TLR7.

For the compound `Cc1cc(-c2ccc3c(C)c(-c4ccc(C(=O)N5CCNCC5)cc4)[nH]c3c2)cc(C)n1` [Example 21], the EC50 on TLR9 is 83.6 nM; on TLR7, 127 nM.

For the compound `CCc1c(-c2ccc(N3CCNCC3)nc2)[nH]c2cc(-c3cc(C)nc(C)c3)ccc12` [Example 12], the EC50 turned out to be 47.8 nM on TLR9 and 6.2 nM on TLR7.

Turning to `CCc1c(-c2cnc(N3CCNCC3)nc2)[nH]c2cc(-c3cc(C)nc(C)c3)ccc12` [Example 14], the EC50 worked out at 37.1 nM on TLR9 and 6.2 nM at TLR7.

Take `Cc1c(-c2ccc(N3CCNCC3)nc2)[nH]c2cc(-c3cn[nH]c3)ccc12` [Example 9]: the values for the EC50 at TLR9 and at TLR7 were 467 nM and 463 nM, respectively.

With `Cc1cc(-c2ccc3c(C)c(-c4cccc(C(=O)N5CCNCC5)c4)[nH]c3c2)cc(C)n1` [Example 22, (3-(6-(2,6-dimethylpyridin-4-yl)-3-methyl-1H-indol-2-yl)phenyl)(piperazin-1-yl)methanone], the EC50 on TLR9 was determined as 61.3 nM; on TLR7, 66.6 nM.

Regarding `Cc1cc(-c2ccc3c(C)c(-c4ccc(S(=O)(=O)N5CCNCC5)cc4)[nH]c3c2)cc(C)n1` [Example 15], the figures for the EC50 at TLR9 and on TLR7 were 202 nM and 509 nM, respectively.
